Test results reported in the AptaBench aptamer set (doi:10.1093/nar/gkaf219).

Assays:
Conditions in all cases: 10 mM Tris-HCl, pH 7.4
[1] = system: DNA aptamer or structured DNA CTTACGACGCGGACGTTGTGGGGCGTGGCAGTCGGTGAGTCGTAAG
[2] = system: DNA aptamer or structured DNA CTTACGACGTGTGCTGTTGGTTCTAGGGTAGGATGGCGTCGTAAG
[3] = system: DNA aptamer or structured DNA CTTACGACAAACTTTTGGGTATCTGGTTGGGAGGTTCTGTCGTAAG
[4] = system: DNA aptamer or structured DNA TTCAAATCTATGGTGCAGTGCGCAGGGACGGAGGTAAAACATGAGTTTTAGTCTAGATTTGAA
[5] = system: DNA aptamer or structured DNA GGGACGACAGAGGTTAGGTGTAGGTTTTTGGGTCCTGTCGTCCC
[6] = system: DNA aptamer or structured DNA CTTACGACTGGGATGTGTTGTTAGTGCTGTCGGATCCGGTCGTAAG
[7] = system: DNA aptamer or structured DNA CTTACGACCAGGCTACGTGGGGGAGGGTGGGAAGACGGGTCGTAAG
[8] = system: DNA aptamer or structured DNA GGGACGACACGTGTGGCTGGTAGGGTAGGTCTTGTCGCGTCGTCCC
[9] = system: DNA aptamer or structured DNA CTTACGACGGGGTGGGGGCGGCTTCCCATGGGAGGGGTGTCGTAAG
[10] = system: DNA aptamer or structured DNA CTTACGACAAGGGATGTCTGTTAGTGTGTCGGTGCATTGTCGTAAG
[11] = system: DNA aptamer or structured DNA CTTACGACGGGTAGGCTGAGGGTCTGGAGTGGTTGGAAGTCGTAAG
[12] = system: DNA aptamer or structured DNA CTTACGACACACGGTGTGGATGAGGTGGGCTAATAGGGGTCGTAAG
[13] = system: DNA aptamer or structured DNA CTTACGACACAGGGGGGGGCTAGGGTGCGCGGGAGCTGGTCGTAAG
[14] = system: DNA aptamer or structured DNA CTTACGACTAGTTCCGGGTAGGGGTAGGTGTGGTTGTGGTCGTAAG
[15] = system: DNA aptamer or structured DNA GGGACGACTAGGGCTTAGGGTTTAGGTGTGGGGTGTAAGTCGTCCC
[16] = system: DNA aptamer or structured DNA CTTACGACGAGCATCGGTTTTTTCGGTGATGTCTGGGAGTCGTAAG
[17] = system: DNA aptamer or structured DNA CTTACGACTAGGTGTGGGTCGGCTCCGGATGGAGGGTAGTCGTAAG
[18] = system: DNA aptamer or structured DNA CTTACGACGGTCTTTTGGGTGTTCTGGGTGGGAGGAGCGTCGTAAG
[19] = system: DNA aptamer or structured DNA CTTACGACCGGTGTGCTCGGGGAAGGGGGCCCTAGGTGGTCGTAAG
[20] = system: DNA aptamer or structured DNA CTTACGACACAGGGGGTGGCTAGGGTGCGCGGGAGCTGGTCGTAAG
[21] = system: DNA aptamer or structured DNA CTTACGACACAGGGCGTGGAGTGGCTGGGCTTCAAGGGGTCGTAAG
[22] = system: DNA aptamer or structured DNA CTTACGACATGGGATGTGTAGTTAGTGGTCGGATCCGAGTCGTAAG
[23] = system: DNA aptamer or structured DNA CTTACGACTACGGTTGGTTCAGGGGGTAGGTGCTTTGGGTCGTAAG
[24] = system: DNA aptamer or structured DNA GGGACGACGGGATTCGGATCGTGGAACAGTGCCTCGTCGTCGTCCC
[25] = system: DNA aptamer or structured DNA CTTACGACACAGGGCGTGGAGGAGCTGGGCTATTAGGGGTCGTAAG
[26] = system: DNA aptamer or structured DNA TTCAAATCTGGCGTTCGGGTTTGTCTTATTGATGGATCAAGTCTAGATTTGAA
[27] = system: DNA aptamer or structured DNA CTTACGACGGGGGTGTGGCTAGGGGTGGCGCGGGATCCGTCGTAAG
[28] = system: DNA aptamer or structured DNA CTTACGACGGGTGCTGTTGGTTCTAGGGTTAGGATGGCGTCGTAAG
[29] = system: DNA aptamer or structured DNA GGGACGACTAGCTGGTGCGTTGTCCGAAGTCATGAGTAGTCGTCCC
[30] = system: DNA aptamer or structured DNA GGGACGACGCAAATGGAAGCATTGGTTGTGTTCACACTGCTGGGTCGTCCC
[31] = system: DNA aptamer or structured DNA CTTACGACTAGGTGGGGGTCGGCCATGGGAGTGGGGTAGTCGTAAG
[32] = system: DNA aptamer or structured DNA GGGACGACGGGGCTCTTACCCTGGAGGGTAGAAGGGGAGGTGTGGTCAGTCGTCCC
[33] = system: DNA aptamer or structured DNA CTTACGACGTTGGGCTTATTAGGGGCTGGAGTGGGTGAGTCGTAAG
[34] = system: DNA aptamer or structured DNA CTTACGACAATCTTTTGGGTGTTCTGGGTGAGGTGTTTGTCGTAAG
[35] = system: DNA aptamer or structured DNA TTCAAATCTGGTGCCCTTTCGCAGTCGGTTGGTAATGAGATCACTTTAGAGTCTAGATTTGAA
Throughout, for binding call: call rule not given here.

For `CCN(CC)CCOC(=O)c1ccc(N)cc1`, the binding call [1] was “no binding”, the binding call [2] was “binds” and the binding call [3] was “no binding”. The binding call [4] was “binds”, the binding call [5] was “no binding” and the binding call [6] was “binds”. For the same compound, the binding call [7] was “no binding”, the binding call [8] was “binds” and the binding call [9] was “binds”. For the same compound, the binding call [10] was “no binding”, the binding call [11] was “binds” and the binding call [12] was “no binding”. The binding call [13] was “binds”, the binding call [14] was “binds” and the binding call [15] was “no binding”. For the same compound, the binding call [16] was “binds”, the binding call [17] was “no binding” and the binding call [18] was “no binding”. The binding call [19] was “no binding”, the binding call [20] was “binds” and the binding call [21] was “binds”. The binding call [22] was “no binding”, the binding call [23] was “binds” and the binding call [24] was “no binding”. The binding call [25] was “no binding”, the binding call [26] was “no binding” and the binding call [27] was “binds”. The binding call [28] was “binds”, the binding call [29] was “no binding” and the binding call [30] was “binds”. For the same compound, the binding call [31] was “no binding”, the binding call [32] was “no binding” and the binding call [33] was “no binding”.
`NCCc1c[nH]c2ccc(O)cc12` was tested, and the binding call [1] was “no binding”, the binding call [2] was “binds” and the binding call [3] was “no binding”. The binding call [4] was “binds”, the binding call [5] was “no binding” and the binding call [34] was “no binding”. The binding call [6] was “no binding”, the binding call [8] was “no binding” and the binding call [10] was “no binding”. The binding call [11] was “no binding”, the binding call [12] was “no binding” and the binding call [13] was “no binding”. The binding call [14] was “binds”, the binding call [15] was “no binding” and the binding call [17] was “no binding”. For the same compound, the binding call [18] was “no binding”, the binding call [20] was “binds” and the binding call [21] was “no binding”. The binding call [22] was “no binding”, the binding call [23] was “binds” and the binding call [25] was “no binding”. The binding call [26] was “no binding”, the binding call [27] was “binds” and the binding call [28] was “binds”. The binding call [31] was “no binding”, the binding call [35] was “no binding” and the binding call [32] was “binds”. For the same compound, the binding call [33] was “no binding”.
With `COc1ccc2c3c1O[C@H]1C(=O)CC[C@@]4(O)[C@@H](C2)N(C)CC[C@]314` the binding call [1] was “no binding”, the binding call [2] was “no binding” and the binding call [3] was “no binding”. The binding call [5] was “no binding”, the binding call [34] was “no binding” and the binding call [6] was “no binding”. The binding call [8] was “binds”, the binding call [11] was “no binding” and the binding call [13] was “no binding”. For the same compound, the binding call [14] was “no binding”, the binding call [15] was “no binding” and the binding call [17] was “no binding”. For the same compound, the binding call [18] was “no binding”, the binding call [20] was “binds” and the binding call [21] was “no binding”. The binding call [22] was “no binding”, the binding call [26] was “no binding” and the binding call [27] was “no binding”. The binding call [28] was “no binding”, the binding call [30] was “no binding” and the binding call [31] was “no binding”. The binding call [33] was “no binding”.
With `COC(=O)[C@@H]1C2CCC(C[C@@H]1OC(=O)c1ccccc1)N2C` (stereo partly drawn) the Kd [1] was 1030 nM, the Kd [2] was 93 nM and the binding call [5] was “no binding”. The Kd [34] was 378 nM, the Kd [6] was 204 nM and the binding call [7] was “no binding”. For the same compound, the binding call [8] was “binds”, the binding call [9] was “no binding” and the Kd [10] was 330 nM. For the same compound, the Kd [11] was 450 nM, the Kd [12] was 69 nM and the Kd [13] was 282 nM. For the same compound, the Kd [14] was 61 nM, the binding call [15] was “no binding” and the binding call [16] was “no binding”. The Kd [17] was 510 nM, the binding call [19] was “no binding” and the Kd [20] was 76 nM. For the same compound, the Kd [21] was 123 nM, the Kd [23] was 198 nM and the binding call [24] was “no binding”. For the same compound, the Kd [25] was 1190 nM, the binding call [26] was “no binding” and the Kd [27] was 185 nM. The Kd [28] was 57 nM, the binding call [29] was “no binding” and the binding call [30] was “binds”. The Kd [31] was 270 nM, the binding call [32] was “binds” and the Kd [33] was 617 nM.
